According to patent EP0552417B1, “Cyclic peptides and use thereof” (priority 1991, dated 1993):
Read-outs that look alike come from different tables or passages of the source. Non-standard residues stand in square brackets, D forms with d. Residues, ends and D or L forms follow the SMILES beside them. Groups on a side chain read outwards from the residue. *: point of attachment. NHPhenethyl = c1ccc(CCN*)cc1; X2 = c1ccc2c(c1)CCN2*; NHBn = c1ccc(CN*)cc1

What was measured:
[1] = target: T1, endothelin receptor A (ETA) (Sus scrofa, UniProt Q29010); assay: Assay of affinity for receptor (1): binding activity on ETA receptor, 125I-labeled endothelin-1, porcine heart membrane fraction; set-up: key: relative specific activity; reference cyclic pentapeptide ETA binding = 1.0; conditions: specific activity, taking the binding activity of control cyclo[-D-Glu-Ala-D-aIle-Leu-D-Trp-] on receptor A as 1.0, 25°C, 1 hour
T1 construct: A membrane fraction prepared from the porcine heart; from tissue; host or cells: porcine heart membrane fraction
T1 sequence (Q29010 21-427): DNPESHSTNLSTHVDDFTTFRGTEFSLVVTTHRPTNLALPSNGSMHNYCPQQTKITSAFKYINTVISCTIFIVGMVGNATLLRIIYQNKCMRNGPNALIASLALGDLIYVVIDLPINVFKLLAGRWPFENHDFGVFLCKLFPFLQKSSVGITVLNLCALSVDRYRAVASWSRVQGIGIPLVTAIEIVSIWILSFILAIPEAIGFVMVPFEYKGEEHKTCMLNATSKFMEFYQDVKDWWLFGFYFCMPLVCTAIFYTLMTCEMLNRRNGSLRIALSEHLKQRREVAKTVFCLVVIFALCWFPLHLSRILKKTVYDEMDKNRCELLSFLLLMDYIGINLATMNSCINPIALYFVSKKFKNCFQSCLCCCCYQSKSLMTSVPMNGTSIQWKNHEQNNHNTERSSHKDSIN
Summary of the method: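 Porcine heart membranes (0.15 mg/ml) incubated with 125I-endothelin-1 and test peptide for 1 h at 25°C, then centrifuged; pellet-bound radioactivity counted by gamma counter. Values given as specific activity relative to reference cyclo[-D-Glu-Ala-D-aIle-Leu-D-Trp-], set at 1.0.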

[2] = target: T2, NK2 receptor (Bos taurus, UniProt P05363); assay: Assay of affinity for receptor (3): binding inhibiting activity on NK2 receptor, 125I-neurokinin A, membrane fraction of bovine third stomach inner wall; conditions: 125I-NKA, 25°C, 3 hours
T2 construct: The membrane fraction containing the receptor was prepared from the inner wall of the bovine third stomach; tissue Kyoto Chuo Chikusan Fukuseibutsu Oroshi Kyoukai (tissue); host or cells: inner wall of bovine third stomach, membrane fraction
T2 sequence (P05363 1-384): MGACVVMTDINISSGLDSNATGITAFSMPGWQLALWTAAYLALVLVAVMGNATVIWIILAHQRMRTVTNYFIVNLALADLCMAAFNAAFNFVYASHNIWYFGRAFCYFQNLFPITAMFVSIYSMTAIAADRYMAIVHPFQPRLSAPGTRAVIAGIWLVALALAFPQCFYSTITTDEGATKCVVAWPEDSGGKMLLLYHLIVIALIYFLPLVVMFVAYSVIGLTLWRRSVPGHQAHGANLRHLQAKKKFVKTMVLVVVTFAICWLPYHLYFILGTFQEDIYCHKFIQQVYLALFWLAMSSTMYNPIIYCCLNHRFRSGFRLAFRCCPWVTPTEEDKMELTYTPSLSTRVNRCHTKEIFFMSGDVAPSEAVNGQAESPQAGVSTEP
Procedure: Assay of Affinity for Receptor (3) ... Binding Inhibiting Activity on NK2 Receptor
The method of Paul L. M. Van Giersbergen et al. [Proc. Natl. Acad. Sci. U.S.A., 88, 1661 (1991) was modified for this assay. The membrane fraction containing the receptor was prepared from the inner wall of the bovine third stomach (purchased from Kyoto Chuo Chikusan Fukuseibutsu Oroshi Kyoukai).
The inner wall of the bovine third stomach stored at-80°C was cut to 1 cm X 1 cm or less, and disrupted in 3 liters/kg of 50 mM Tris-HCl buffer (pH 7.4) supplemented with 120 mM sodium chloride, 5 mM potassium chloride, 0.02% BSA and 5% sucrose, using a polytron homogenizer (Kinematika, Germany). Then, the disrupted product was centrifuged at 1,000 X g for 10 minutes. The supernatant was further centrifuged at 45,000 X g for 20 minutes. The precipitate was suspended in 200 ml of 50 mM Tris-HCl buffer (pH 7.4) supplemented with 300 mM potassium chloride, 10 mM ethylenediaminetetraacetic acid, 0.1 mM phenylmethylsulfonium fluoride and 0.02% BSA, and gently stirred under ice cooling for 60 minutes. The suspension was centrifuged at 45,000 X g for 20 minutes. The precipitate was washed with 200 ml of 50 mM Tris-HCl buffer (pH 7.4), and stored in the frozen state at -40°C as a receptor sample.
This sample was suspended in a reaction buffer solution [50 mM Tris-HCl buffer (pH 7.4), 0.02% bovine serum albumin and 4 mM manganese chloride] so as to give a protein concentration of 0.7 mg/ml, and 100 µl thereof was used for reaction. A test sample and ^125I-NKA (0.61 KBq, ^125I-neurokinin A, 81.4 TBq/mmol, Du Pont/NEN Research Products, U.S.A.) were also added, and reacted in 0.2 ml of the reaction buffer solution at 25°C for 3 hours. The reaction mixture was rapidly filtered through a glass filter (GF/B, Whatman, U.S.A.) using a cell harvester (Type 290PHD, Cambridge Technology Inc.) to terminate the reaction, and washed 3 times with 250 µl of 50 mM Tris-HCl buffer (pH 7.4) supplemented with 0.02% bovine serum albumin. The radioactivity left on the filter was measured with a gamma-ray counter. Results are shown in Table 1 as the binding inhibiting activity (IC50, unit: µM) on the NK2 receptor.

[3] = test system: ETB; assay: ETB radio receptor assay *2, 125I-endothelin-1, guinea pig kidney crude membrane fraction; type: binding, Guinea pigs; conditions: relative activity, 37 °C, 90 minutes
Summary of the method: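 Radioligand binding used crude guinea pig kidney membranes (2.1 µg protein) with 740 Bq 125I-endothelin-1. Incubation was 90 min at 37 °C in 50 mM Tris-HCl pH 7.4, 0.1 mM PMSF, 1 mM EDTA, 0.2% BSA. Bound radioactivity was collected by GF/B filtration and measured by gamma counting.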

[4] = target: T3, endothelin receptor B (ETB) (Bos taurus, UniProt P28088); assay: Assay of affinity for receptor (2): binding activity on ETB receptor *1, 125I-labeled endothelin-1, bovine brain membrane fraction; conditions: specific activity, taking the binding activity of the compound of Example 8 on receptor B as 100, 25°C, 1 hour
T3 construct: A membrane fraction prepared from the bovine brain; from tissue; host or cells: bovine brain membrane fraction
T3 sequence (P28088 27-441): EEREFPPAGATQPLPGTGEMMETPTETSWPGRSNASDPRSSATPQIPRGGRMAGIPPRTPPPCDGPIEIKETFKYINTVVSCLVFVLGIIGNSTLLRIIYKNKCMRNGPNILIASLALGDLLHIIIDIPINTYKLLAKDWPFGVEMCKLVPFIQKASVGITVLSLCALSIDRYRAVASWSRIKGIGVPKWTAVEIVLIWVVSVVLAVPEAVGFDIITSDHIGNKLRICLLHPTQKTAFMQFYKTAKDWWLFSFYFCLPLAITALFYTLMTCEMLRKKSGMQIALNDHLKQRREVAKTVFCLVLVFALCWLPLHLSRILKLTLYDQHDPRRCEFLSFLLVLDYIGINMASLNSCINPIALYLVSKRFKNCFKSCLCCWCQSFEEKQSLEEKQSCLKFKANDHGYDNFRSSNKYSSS
Procedure: Assay of Affinity for Receptor (2) ... Binding Activity on ETB Receptor *1
A membrane fraction prepared from the bovine brain was diluted to 0.15 mg/ml by using a buffer solution for assay, and 100 µl of the resulting suspension of the membrane fraction was poured into each assay tube to use for assay. To this suspension of the membrane fraction was added 2 µl of 5 nM ^125I labeled endothelin-1 solution. Further, 3 µl of a test peptide solution was added thereto, followed by incubation at a temperature of 25°C for 1 hour. Then, the resulting suspension was diluted with 900 µl of the buffer solution for assay cooled with ice, and thereafter separated into a supernatant and a precipitate by centrifugation at 12,000 X g for 10 minutes. Cell membranes and an endothelin receptor B (ETB) embedded therein were contained in the precipitate, and radioactive iodine-labeled endothelin bound to the receptor was also recovered in the precipitate. Accordingly, the amount of radioactive iodine-labeled endothelin bound to the endothelin receptor B (ETB) was determined by measuring the amount of radioactive iodine contained in the precipitate with a gamma-ray counter. The numerical value of ETB shown in Table 1 is the value of specific activity, taking the binding activity of the compound of Example 8 on the receptor B as 100.

[5] = amide bond, DCC/HONB (active ester), TEA, DMF, 16.0 h, 4 steps
[6] = amide bond; 18-membered ring; HONB/DCC preactivation; HCl; DIEA; DMF; 4.75 mM; 3 steps

Molecule	Binding Activity on ET Receptor (R. act.) ETA [1]	IC50 [2] [µM]	Binding Activity on ET Receptor (R. act.) ETB*2 [3]	other results
CC(C)C[C@@H]1NC(=O)[C@H](CC(=O)O)NC(=O)[C@@H](CC(=O)O)NC(=O)[C@@H](Cc2c[nH]c3ccccc23)NC(=O)[C@H](CC(C)C)NC(=O)[C@@H](CC(C)C)NC1=O [Example 32, Cyclo[-D-Asp-Asp-Leu-D-Leu-Leu-D-Trp-]] (cyclo(DL[dL]L[dW][dD]))	4.0	2.6	7.7	–
CC(C)C[C@@H]1NC(=O)[C@@H](CC(C)C)NC(=O)[C@H](Cc2c[nH]c3ccccc23)NC(=O)[C@H](CC(=O)O)NC(=O)[C@@H](CC(=O)O)NC(=O)[C@@H](Cc2c[nH]c3ccccc23)NC1=O [Example 33, Cyclo[-D-Asp-Asp-Trp-D-Leu-Leu-D-Trp-]] (cyclo(DW[dL]L[dW][dD]))	2.9	0.35	5.6	–
CC(C)C[C@@H]1NC(=O)[C@@H](Cc2ccccc2)NC(=O)[C@H](CC(=O)O)NC(=O)[C@H](Cc2c[nH]c3ccccc23)NC(=O)[C@@H](CC(=O)O)NC(=O)[C@@H](Cc2c[nH]c3ccccc23)NC1=O [Example 60, Cyclo[-D-Asp-Trp-Asp-D-Phe-Leu-D-Trp-]] (cyclo(D[dF]L[dW][dD]W))	1	–	44	Binding Activity on ET Receptor (R. act.) ETB*1 [4]: 210
CC(C)C[C@@H]1NC(=O)[C@@H](CC(C)C)NC(=O)[C@H](CC(=O)O)NC(=O)[C@H](CCC(=O)N2CCc3ccccc32)NC(=O)[C@@H](CC(=O)O)NC(=O)[C@@H](Cc2c[nH]c3ccccc23)NC1=O [Example 76, Cyclo[-D-Asp-Glu(R3)-Asp-D-Leu-Leu-D-Trp-]] (cyclo(D[dL]L[dW][dD]E(X2)))	–	10	–	–
CC(C)C[C@@H]1NC(=O)[C@@H](CC(C)C)NC(=O)[C@H](CC(=O)O)NC(=O)[C@H](CC(=O)N[C@@H](Cc2c[nH]c3ccccc23)C(=O)NCc2ccccc2)NC(=O)[C@@H](CC(=O)O)NC(=O)[C@@H](Cc2c[nH]c3ccccc23)NC1=O [Example 92, Cyclo[-D-Asp-Asp(Trp-NHBzl)-Asp-D-Leu-Leu-D-Trp-]] (cyclo(D([Trp-NHBn])D[dL]L[dW][dD]))	–	4	–	–
CC(C)C[C@@H]1NC(=O)[C@@H](CC(C)C)NC(=O)[C@H](CC(=O)O)NC(=O)[C@H](CC(=O)N[C@@H](Cc2c[nH]c3ccccc23)C(=O)NCCc2ccccc2)NC(=O)[C@@H](CC(=O)O)NC(=O)[C@@H](Cc2c[nH]c3ccccc23)NC1=O [Example 94, Cyclo[-D-Asp-Asp(Trp-NHCH2CH2Ph)-Asp-D-Leu-Leu-D-Trp-]] (cyclo(D([Trp-NHPhenethyl])D[dL]L[dW][dD]))	–	5.8	–	–
CC(C)C[C@@H]1NC(=O)[C@@H](c2cccs2)NC(=O)[C@H](CC(=O)O)NC(=O)[C@H](CCC(=O)NCc2ccccc2)NC(=O)[C@@H](CC(=O)O)NC(=O)[C@@H](Cc2c[nH]c3ccccc23)NC1=O [cyclo[-D-Asp-Gln(Bzl)-Asp-D-Thg(2)-Leu-D-Trp-]]	–	–	–	ring closure, yield of all isomers ([5]; from CC(C)C[C@H](NC(=O)[C@H](NC(=O)OC(C)(C)C)c1cccs1)C(=O)N[C@H](Cc1c[nH]c2ccccc12)C(=O)N[C@H](CC(=O)OCc1ccccc1)C(=O)N[C@@H](CCC(=O)NCc1ccccc1)C(=O)N[C@@H](CC(=O)OCc1ccccc1)C(=O)O, 5.06 mM): 8.8%
CC(C)C[C@@H]1NC(=O)[C@@H](c2cccs2)NC(=O)[C@H](CC(=O)O)NC(=O)[C@@H]2C[C@@H](OCc3ccccc3)CN2C(=O)[C@@H](CC(=O)O)NC(=O)[C@@H](Cc2c[nH]c3ccccc23)NC1=O [cyclo[-D-Asp-Hyp(Bzl)-Asp-D-Thg(2)-Leu-D-Trp-]]	–	–	–	ring closure, yield of all isomers ([5]; from CC(C)C[C@H](NC(=O)[C@H](NC(=O)OC(C)(C)C)c1cccs1)C(=O)N[C@H](Cc1c[nH]c2ccccc12)C(=O)N[C@H](CC(=O)OCc1ccccc1)C(=O)N1C[C@H](OCc2ccccc2)C[C@H]1C(=O)N[C@@H](CC(=O)OCc1ccccc1)C(=O)O, 4.98 mM): 5.7%
CC(C)C[C@@H]1NC(=O)[C@@H](CC(C)C)NC(=O)[C@H](CC(=O)O)NC(=O)[C@H](CCCNC(=O)c2ccccc2)NC(=O)[C@@H](CC(=O)O)NC(=O)[C@@H](Cc2c[nH]c3ccccc23)NC1=O [cyclo[-D-Asp-Orn(COPh)-Asp-D-Leu-Leu-D-Trp-]]	–	–	–	ring closure, yield of all isomers ([5]; from CC(C)C[C@H](NC(=O)[C@@H](CC(C)C)NC(=O)[C@H](CC(=O)OCc1ccccc1)NC(=O)[C@H](CCCNC(=O)c1ccccc1)NC(=O)OC(C)(C)C)C(=O)N[C@H](Cc1c[nH]c2ccccc12)C(=O)N[C@H](CC(=O)OCc1ccccc1)C(=O)O, 5.03 mM): 48.1%
cyclo[-D-Asp(OBzl)-Asn(NHCH2CH2Ind)-Asp(OBzl)-D-Thg(2)-Leu-D-Trp-]	–	–	–	ring closure, crude yield [6]: 90.4%
